The values below come from BindingDB's records for doi:10.1016/s0960-894x(99)00005-0 (Smithkline Beecham Pharmaceuticals, 1999).

A short description of the experiment: Inhibitory activity against varicella zoster virus (VZV) protease.
For `Cc1csc2nc([C@H](C)NC(=O)/C=C/C(=O)c3ccccc3[N+](=O)[O-])oc(=O)c12` [(E)-4-(2-Nitro-phenyl)-4-oxo-but-2-enoic acid [(S)-1-(5-methyl-4-oxo-4H-thieno[2,3-d][1,3]oxazin-2-yl)-ethyl]-amide], the IC50 – broadly, the point on the concentration scale where inhibition reaches its midpoint – was determined as 840 nM.

The compound `CCOc1ccc(C(=O)/C=C/C(=O)N[C@@H](C)c2nc3scc(C)c3c(=O)o2)cc1` [(E)-4-(4-Ethoxy-phenyl)-4-oxo-but-2-enoic acid [(S)-1-(5-methyl-4-oxo-4H-thieno[2,3-d][1,3]oxazin-2-yl)-ethyl]-amide] registered an IC50 of 1600 nM.

In turn, `Cc1csc2nc([C@H](C)NC(=O)/C=C/C(=O)c3cccs3)oc(=O)c12` [(E)-4-Oxo-4-thiophen-2-yl-but-2-enoic acid [(S)-1-(5-methyl-4-oxo-4H-thieno[2,3-d][1,3]oxazin-2-yl)-ethyl]-amide] displayed an IC50 of 650 nM.

The compound `Cc1csc2nc([C@H](C)NC(=O)/C=C/C(=O)c3cccc(C#N)c3)oc(=O)c12` [(E)-4-(3-Cyano-phenyl)-4-oxo-but-2-enoic acid [(S)-1-(5-methyl-4-oxo-4H-thieno[2,3-d][1,3]oxazin-2-yl)-ethyl]-amide] came in with an IC50 of 410 nM.

For the compound `COc1cccc(C(=O)/C=C/C(=O)N[C@@H](C)c2nc3scc(C)c3c(=O)o2)c1` [(E)-4-(3-Methoxy-phenyl)-4-oxo-but-2-enoic acid [(S)-1-(5-methyl-4-oxo-4H-thieno[2,3-d][1,3]oxazin-2-yl)-ethyl]-amide], the IC50 is 340 nM.

With `CC(=O)C=CC(=O)N[C@@H](C)c1nc2scc(C)c2c(=O)o1` [(E)-4-Oxo-pent-2-enoic acid [(S)-1-(5-methyl-4-oxo-4H-thieno[2,3-d][1,3]oxazin-2-yl)-ethyl]-amide], half-maximal inhibition (IC50) required 1360 nM.

For `Cc1csc2nc([C@H](C)NC(=O)CCC(=O)c3cccs3)oc(=O)c12` [N-[(S)-1-(5-Methyl-4-oxo-4H-thieno[2,3-d][1,3]oxazin-2-yl)-ethyl]-4-oxo-4-thiophen-2-yl-butyramide], the IC50 was 820 nM.
